From patent EP1431306A1, “A mechanism for hiv-1 entry into host cells and peptides inhibiting this mechanism” (priority 2002, dated 2004)

Experiments:
TAT+/gp120-LV = test: Entry of TAT+/gp120-LV into C8166 cells after co-culture with U937/PINCO or U937/TAT cells; assay type: cell-based, HIV-1
Source text: This example is illustrated in Fig. 10. […] Said vector, as described in Example II, allows the expression of TAT, so that TAT is already present, as detailed described before, in the vector preparation and its amount is enhanced after the co-culture with U937/TAT cells. […] In particular, peptides with SEQ ID NO. 40 (RDKKKK), 42 (RDKKKV), 45 (KDKKEK), 47 (RDKKQK), 49 (RDKQQK), 50 (RDKVQK) revert the entry of more than 15%.
This example is illustrated in Fig. 11. […] 4 (CSFINT) and 44 (RDKVKK), where the entry experiment is performed with TAT+/gp120-LV, following 4 h co-culture of C8166 cells with U937/TAT cells. These two peptides are the ones derived from the Phage Display screening, and is here evaluated their ability of inhibit vector entry at concentrations lower than 100 µM (the concentration used in all the examples previously described). To verify if the integrity of the peptides is crucial for their activity, we have incubated the cells with said peptides in the presence of different protease inhibitors (aprotinin or a mix made by aprotinin, leupeptin, bestatin, pepstatin-A, AEBSF [4-(2-Aminoethyl) Benzenesulfonyl Fluoride Hydrochloride] and E-64 [(N-(N-(L-3-Transcarboxirane-2-Carbonyl)-L-Leucyl)-Agmatine)]). […] This example illustrates a way by which the power of said peptides can be improved.
Co-cultures and incubations with rTAT. […]
Transduction with HIV-1-derived lentivirus. Vector stocks were prepared by transient co-transfection of 293T cells with the following combinations of plasmids: pRRL.hPGK.GFP.SIN-18 + pCMV.DR8.2 + pMD.G (Naldini et al. (1996), supra) (VSV-G-LV) or pEnvHXB (Huang et al., J. Virol. 72 (1998), 8952-8960) (TAT+/gp120-LV); pRRL.hPGK.GFP.SIN-18 + pCMV.DR8.74 + pRSV-Rev ((Dull et al. (1998), supra) + pEnvHXB (TAT^-/gp120-LV). Vector concentration was determined by HIV-1 p24 Core profile ELISA following the manufacturer's instructions. The entry experiments were conducted on 10^5 cells per well of a 48-well plate in the presence of 8 µg/ml polybrene. The number of GFP-positive cells was analysed by FACS.

HIV-1 Ba-L = test: Infection of PHA-stimulated PBMCs with wild type HIV-1 Ba-L (early viral transcripts by PCR); assay type: cell-based; settings: 2 h at 37 °C, compared to 100 µM control peptide, SEQ ID NO.4 and 44: 100-50-10 µM, SEQ ID NO. 127: 1 µM-100-10 nM
Method: This example is illustrated in Fig. 12. […] 4 (CSFINT), 44 (RDKVKK) and the complete gp120 region SEQ ID NO.127 (CSFNITTEIRDKVKK), where the entry experiment is performed with two strains of HIV-1 on peripheral blood cells (PBMCs) derived from healthy donors. In particular, strain III B uses CXCR4 as a co-receptor (X4) and Ba-L uses CCR5 (R5).
In the graphs the percent inhibition of infection due to the peptides is shown, as compared to infection in the presence of 100 µM of a control peptide. PHA-stimulated PBMCs have been incubated with the peptides and immediately infected for 2 h at 37 °C. This incubation time is sufficient to evaluate virus entry, by detecting the presence of early viral transcripts into the cytoplasm of infected cells. The peptide concentrations are as follows: SEQ ID NO.4 and 44: 100-50-10 µM; SEQ ID NO. 127: 1 µM-100-10 nM. In Fig. 12A is represented the effect of the peptides on the basal infection of both viral strains, in Fig. 12B the effect of the peptides on the infection following incubation with rTAT 7 nM. A peptide-dependent inhibition of the basal infection by both HIV-1 strains is present already in the basal infection, reflecting the presence of TAT in the viral supernatants. […]
Infection with wild type HIV-1. […] Amplified DNA was analyzed by Southern blot hybridization with a ^32P-labeled probe, and quantified by densitometry. […]

Substance	reversion of TAT+/gp120-LV entry (TAT+/gp120-LV; 100 µM of the peptides, 4 h co-culture of C8166 cells with U937/PINCO or U937/TAT cells (effect potentiated by co-culture with U937/TAT))	inhibition of the basal infection (HIV-1 Ba-L) [%]	blocking of virus entry (TAT+/gp120-LV) (TAT+/gp120-LV; concentration lower than 100 µM, no protease inhibitors, 4 h co-culture with U937/TAT cells)	concentration at which the inhibitory effect is still visible (TAT+/gp120-LV; in the presence of protease inhibitors (aprotinin or mix), 4 h co-culture with U937/TAT cells) [µM]
RDKKQQ [SEQ ID NO. 47]	more than 15%	–	–	–
CSFINT [SEQ ID NO. 4]	–	~70	inefficient in blocking virus entry	5
